Measured values: patent US11413278B2, “Compounds and methods for promoting stress resistance” (priority 2015, dated 2022)
Entries after “also recorded” stand apart in the source; their conditions may differ. Like-named read-outs stand apart in the source and are kept apart here.

How the values were obtained:
[1] = test system: phosphorylated γH2A.X and TP53BP1; test: DNA damage marker analysis (immuno-staining); settings: for activity at 10 µM: Homo sapiens, WI-38, 24 h; for P = Potential DNA-damaging / R = Potential DNA damaging: human, 24 h
Method in brief: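 Immunofluorescence read-out for phospho-γH2A.X (Ser-139) and phospho-TP53BP1 (Ser-1778), with DAPI nuclear stain and automated imaging at 10×. WI-38 cells (~8,000 per well) were exposed to small molecules for 24 h after 24 h of culture, with doxorubicin (300 nM, 24 h) or H2O2 (700 μM, 3 h) as positive damage controls.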

WI-38 cells [2] = settings: for No H2O2 stress treatment, at 10 uM (fold change): normalized ATP measurement; for Assay 1: H2O2-resistant: YES/NO, if NO, possibly due to repeated freezing/thawing of stocks
human PARP1 = target: T1, human PARP1 (Homo sapiens, UniProt P09874); test: PARP inhibitor assay (HT Fluorescent Homogeneous PARP Inhibition Assay Kit); assay type: biochemical; settings: score
T1 construct: purchased Trevigen
T1 sequence (P09874 whole entry): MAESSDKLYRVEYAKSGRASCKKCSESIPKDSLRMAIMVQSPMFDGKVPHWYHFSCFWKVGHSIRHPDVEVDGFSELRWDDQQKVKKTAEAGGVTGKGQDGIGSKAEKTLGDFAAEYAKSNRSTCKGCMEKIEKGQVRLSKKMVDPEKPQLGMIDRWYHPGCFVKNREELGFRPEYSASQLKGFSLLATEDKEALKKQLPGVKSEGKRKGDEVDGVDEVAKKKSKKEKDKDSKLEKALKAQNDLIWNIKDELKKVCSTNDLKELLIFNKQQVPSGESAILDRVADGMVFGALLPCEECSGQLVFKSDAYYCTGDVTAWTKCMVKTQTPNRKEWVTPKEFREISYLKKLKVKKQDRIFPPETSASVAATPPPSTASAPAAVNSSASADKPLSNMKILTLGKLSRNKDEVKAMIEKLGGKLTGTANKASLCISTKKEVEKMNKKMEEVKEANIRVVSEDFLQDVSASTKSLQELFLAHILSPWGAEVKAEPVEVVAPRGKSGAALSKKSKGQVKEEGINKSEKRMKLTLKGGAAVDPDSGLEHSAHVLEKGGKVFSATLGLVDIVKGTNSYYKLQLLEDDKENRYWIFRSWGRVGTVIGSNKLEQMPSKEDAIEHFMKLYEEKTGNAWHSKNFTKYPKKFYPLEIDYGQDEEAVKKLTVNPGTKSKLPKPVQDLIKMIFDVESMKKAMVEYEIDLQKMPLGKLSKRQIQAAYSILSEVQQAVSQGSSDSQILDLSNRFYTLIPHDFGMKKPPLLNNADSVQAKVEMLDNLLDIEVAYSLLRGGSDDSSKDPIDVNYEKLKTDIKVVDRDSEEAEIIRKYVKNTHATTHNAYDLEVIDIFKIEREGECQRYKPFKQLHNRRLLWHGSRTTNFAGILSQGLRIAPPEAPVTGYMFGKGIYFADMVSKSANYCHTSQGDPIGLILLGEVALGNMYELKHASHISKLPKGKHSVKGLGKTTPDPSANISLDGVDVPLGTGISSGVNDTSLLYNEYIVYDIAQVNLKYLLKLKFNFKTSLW
Method in brief: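 Compounds (10 μM final) incubated 30 min, room temperature, dark, with human PARP1, nicotinamide adenine dinucleotide and activated DNA. Fluorescent signal generated by 1 hr cycling with diaphorase and resazurin, then reaction stopped.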

WI-38 cells [3] = test: MMS resistance assay; assay type: cell-based, human; settings: for fold induction at 10 µM: Homo sapiens, 12 h, normalized ATP measurement; for Assay 3: MMS-resistant / Assay 5: Triple resistant: YES/NO; for Assay 3: MMS-resistant: * indicates partial; for Assay 5: Triple resistant: H2O2, cadmium and MMS
Method in brief: (§1)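 Resistance to CdCl2 or MMS stress (12 h exposure) was scored in WI-38 fibroblasts pretreated with compound at 0.25–20 μM final, five doses, technical triplicates. MMS plates had compound added 24 h before MMS, after a shift to serum-free DMEM+2% BSA. Significance came from a global variance t-test over two independent runs.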

C. elegans = assay type: in vivo, Caenorhabditis elegans; settings: in vivo
Method in brief: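 Survival under oxidative stress: 500 μM H2O2 (final) was added to day-4 adults kept in liquid with compounds, FUdR present, 4 wells per molecule and 0.2% DMSO controls, with daily scoring of viability.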

WI-38 cells [4] = test: CdCl2 (cadmium) resistance assay; assay type: cell-based, human; settings: for fold induction at 10 µM: Homo sapiens, 12 h, normalized ATP measurement; for Assay 4: H2O2- & Cd-resistant / Assay 2: Cadmium-resistant: YES/NO; for Assay 2: Cadmium-resistant: * indicates partial
Method in brief: as §1

[5] = read-out: Experiment 1, H2A.X-P DNA damage foci staining (no H2O2 stress treatment), at 10 uM
[6] = read-out: Experiment 2, H2A.X-P DNA damage foci staining (no H2O2 stress treatment), at 10 uM
[7] = read-out: Experiment 2, H2A.X-P DNA damage foci staining (under H2O2 stress treatment), at 10 uM
[8] = read-out: Experiment 2, TP53BP1-P DNA damage foci staining (no H2O2 stress treatment), at 10 uM
[9] = read-out: Experiment 2, TP53BP1-P DNA damage foci staining (under H2O2 stress treatment), at 10 uM
[10] = WI-38 cells, 10 μM, (*) = compromised ability to protect cells from H2O2, could be due to stability issue
[11] = asterisks indicate the loss of the ability to protect cells from H2O2 over time
[12] = derived from dose response curves, 0.6-20 uM, H2O2-resistance of WI-38 cells
[13] = read-out: Est. ED50, dose response 0.6-20 μM, H2O2-resistance
[14] = Exp. 1, WI-38 cells, read-out: Exp. 1, under MMS stress treatment, at 10 uM (fold change)
[15] = Exp. 2, WI-38 cells, read-out: Exp. 2, under MMS stress treatment, at 10 uM (fold change)
[16] = score in summary of 38 core set hits
[17] = Exp. 1, WI-38 cells, read-out: Exp. 1, under Cd2Cl2 stress treatment, at 10 uM (fold change)
[18] = Exp. 2, WI-38 cells, read-out: Exp. 2, under Cd2Cl2 stress treatment, at 10 uM (fold change)
[19] = WI-38 cells, 10 μM, both stressors

SMILES | activity at 10 µM [1, 5] [%] | activity at 10 µM [1, 6] [%] | activity at 10 µM [1, 7] [%] | activity at 10 µM [1, 8] [%] | activity at 10 µM [1, 9] [%] | P = Potential DNA-damaging [1] | R = Potential DNA damaging [1] | H2O2-resistant (WI-38 cells [2]; [10]) | No H2O2 stress treatment, at 10 uM (fold change) (WI-38 cells [2]; WI-38 cells) | Assay 1: H2O2-resistant (WI-38 cells [2]) | H2O2-resistant (WI-38 cells [2]; [11]) | EC50 (WI-38 cells [2]; [13]) [µM] | L = PARP inhibition (human PARP1) | fold induction at 10 µM (WI-38 cells [3]; [14]) | fold induction at 10 µM (WI-38 cells [3]; [15]) | B = MMS resistant (WI-38 cells [3]; [16]) | B = MMS resistant (WI-38 cells [3]; summary score) | D = Triple resistant (WI-38 cells [3]; summary score) | L = H2O2-resistance in worms (C. elegans) | N = H2O2-resistance in woms (C. elegans) | further results
O=C(Nc1cccc(Cl)c1)c1ccc([N+](=O)[O-])o1 [Gr-1D] | 232 | 353 | 164 | 353 | 554 | 1 | 1 | YES | 0.91 | YES | YES | 2.68 | 0 | 1.16 | 2.31 | 0 | 1 | 2 | 0 | 0 | EC50 (WI-38 cells [2]; [12]): 4.6 µM; Assay 3: MMS-resistant (WI-38 cells [3]): YES; Assay 5: Triple resistant (WI-38 cells [3]): YES; CdCl2-resistant (WI-38 cells [4]): YES; H2O2- & CdCl2-resistant (WI-38 cells [4]): YES; fold induction at 10 µM (WI-38 cells [4]; [17]): 3.14; fold induction at 10 µM (WI-38 cells [4]; [18]): 3.84; CdCl2-resistant (WI-38 cells [4]; WI-38 cells, 10 μM): YES; H2O2- & CdCl2-resistant (WI-38 cells [4]; [19]): YES; Assay 4: H2O2- & Cd-resistant (WI-38 cells [4]): YES; Assay 2: Cadmium-resistant (WI-38 cells [4]): YES; A = Cadmium resistant (WI-38 cells [4]; [16]): 1; A = Cadmium resistant (WI-38 cells [4]; summary score): 1; C = H2O2- & Cd-resistant (WI-38 cells [4]; summary score): 1
O=C(/C(=C/c1ccc(Cl)cc1)c1nc2ccccc2[nH]1)c1ccccc1 [Gr-4D] | 103 | 49.6 | 123 | 136 | 388 | 0 | 0 | YES | 1.11 | YES | YES | 8.9 | 0 | 1.72 | 1.33 | 0 | 1 | 2 | 0 | 0 | EC50 (WI-38 cells [2]; [12]): 10.6 µM; Assay 3: MMS-resistant (WI-38 cells [3]): YES; Assay 5: Triple resistant (WI-38 cells [3]): YES; H2O2-resistance assay, 1st experiment (C. elegans): YES;; CdCl2-resistant (WI-38 cells [4]): YES; H2O2- & CdCl2-resistant (WI-38 cells [4]): YES; fold induction at 10 µM (WI-38 cells [4]; [17]): 2.1; fold induction at 10 µM (WI-38 cells [4]; [18]): 2.88; CdCl2-resistant (WI-38 cells [4]; WI-38 cells, 10 μM): YES; H2O2- & CdCl2-resistant (WI-38 cells [4]; [19]): YES; Assay 4: H2O2- & Cd-resistant (WI-38 cells [4]): YES; Assay 2: Cadmium-resistant (WI-38 cells [4]): YES; A = Cadmium resistant (WI-38 cells [4]; [16]): 1; A = Cadmium resistant (WI-38 cells [4]; summary score): 1; C = H2O2- & Cd-resistant (WI-38 cells [4]; summary score): 1
CCCN1C/C(=C\c2ccc(F)cc2)C(=O)/C(=C/c2ccc(F)cc2)C1 [O15] | 90 | 184 | 58.4 | 48.3 | 251 | 0 | 0 | YES (*) | 0.98 | YES | YES (*) | 20 | 0 | 0.16 | 0.38 | 0 | 0 | 0 | 1 | 1 | H2O2-resistance assay, 1st experiment (C. elegans): YES;; H2O2-resistance assay, 2nd experiment (C. elegans): YES.; Protection of C. elegans from hydrogen peroxide (C. elegans): protected worms from hydrogen peroxide; also recorded: protected C. elegans from hydrogen peroxide; also recorded: could protect C. elegans from hydrogen peroxide; fold induction at 10 µM (WI-38 cells [4]; [17]): 0.18; fold induction at 10 µM (WI-38 cells [4]; [18]): 0.57; Assay 4: H2O2- & Cd-resistant (WI-38 cells [4]): YES; Assay 2: Cadmium-resistant (WI-38 cells [4]): YES; A = Cadmium resistant (WI-38 cells [4]; [16]): 0; A = Cadmium resistant (WI-38 cells [4]; summary score): 1; C = H2O2- & Cd-resistant (WI-38 cells [4]; summary score): 1
COc1cccc(/C=C2\CN(C)C/C(=C\c3cccc(OC)c3OC)C2=O)c1OC [O23] | 79.9 | 326 | 33.4 | 42.4 | 13.2 | 0 | 0 | YES (*) | 0.76 | YES | YES (*) | 4.9 | 0 | 1.04 | 1.28 | 0 | 0 | 0 | 0 | 0 | EC50 (WI-38 cells [2]; [12]): 4.9 µM; H2O2-resistance assay, 1st experiment (C. elegans): YES;; fold induction at 10 µM (WI-38 cells [4]; [17]): 0.69; fold induction at 10 µM (WI-38 cells [4]; [18]): 0.64; Assay 4: H2O2- & Cd-resistant (WI-38 cells [4]): YES; Assay 2: Cadmium-resistant (WI-38 cells [4]): YES; A = Cadmium resistant (WI-38 cells [4]; [16]): 0; A = Cadmium resistant (WI-38 cells [4]; summary score): 1; C = H2O2- & Cd-resistant (WI-38 cells [4]; summary score): 1
